Test [1] deals with EGF-induced tyrosine phosphorylation in A431 cells. The test can be described thus: Inhibition of cellular tyrosine autophosphorylation (VAP assay). It is filed as cell-based. The note with it: Homo sapiens, A-431, 10 min, read-out: VAP IC50. Here is the method:
Inhibition of cellular tyrosine autophosphorylation (VAP assay)
EGF is able to induce the phosphorylation in tyrosine of a specific set of intracellular proteins including EGFR itself. This increase in tyrosine phosphorylation was measured using the Vectastain-ABC-AP kit (Vector Laboratories) following the manufacturer's instructions. Briefly, 2×10^4 A431 cells per well were plated into a microtiter plate and incubated for 3 days at 37° C./5% CO2 until the cultures reached confluency. Cell monolayers were washed with PBS and covered with fresh medium containing 0.1 bovine serum albumin (BSA). Serial dilution of test compounds were added 2 h before the addition of 100 ng/ml EGF; after 10 min stimulation the culture medium was withdrawn, cells were washed 2 times with PBS and fixed for 10 min with cold methanol (-20° C.). After fixation […] of blocking solution (3% BSA in PBS, 0.2% Tween 20, 1% normal horse serum) were added for 1 h at 37° C. Blocking solution was replaced with 3% BSA in PBS containing the antiphosphotyrosine antibody 4G10 (UBI) diluted 1:30000 and incubated for 1 h. […] Reaction was developed for 30 min in the dark and the plates were read at 405 nm.

The test system of test [2] is A431 cells. The test can be described thus: SRB-Antiproliferative assay (A431 assay). Format: cell-based. The note with it: Homo sapiens, A-431, 72 h, read-out: A431 IC50. The procedure: SRB-Antiproliferative assay (A431 assay)
A431 cells were seeded into 96-well microtiter plates (5000 cells/cm^2) and incubated overnight at 37° C./5% CO2. Compounds dissolved in DMSO were added in serial dilution and plates were incubated for 3 days at 37° C./5% CO2. Cells were fixed with cold TCA (10% final concentration) and stained with 0.4% Sulforhodamine B dye in 1% acetic acid for 30 min.
In general terms: In SRB staining, fixed cells bind dye roughly in proportion to their protein.

Test [3] deals with T1, EGFR (Homo sapiens, UniProt P00533).
T1 construct: A431 crude membrane extracts as source of the receptor; endogenous in cells; host or cells: A431 human epidermoid carcinoma cells, crude membranes
The test can be described thus: EGFR-Autophosphorylation Assay (AMIKA assay). Format: biochemical. The conditions noted are these: A431 membranes; for inhibition at 1 µM: 1 μM compound; for inhibition at 1 µM / inhibition at 10 µM: EGF-stimulated; for inhibition at 10 µM: 10 μM compound; for pIC50: EGF 200 nM pre-treatment. The procedure: EGFR-Autophosphorylation Assay (AMIKA assay) The EGFR autophosphorylation was assayed using A431 crude membrane extracts as source of the receptor. Membrane purification: Membranes were prepared as reported by A. Levitzky et al. (Methods in Enzymology 201, 347 (1991) with minor modifications and adapting the method to the A431 human epidermoid carcinoma cell line. Briefly, low density cells growing in RPMI 1640 plus 10% foetal calf serum were detached using 1 mM EDTA in phosphate buffer saline (PBS) and lysed in cold Lysing buffer (1 ml/10^6 cells) (20 mM HEPES pH 7.6, 10 mM NaCl, 2 mM EDTA, […], 1 mM PMSF). Cells were homogenized by 10 strokes in Dounce homogenizer. Nuclei and debris were removed by low speed centrifugation. Membranes were pelletized by ultracentrifugation (1 h, 100000×g) and resuspended in cold HNG buffer (50 mM HEPES pH 7.6, 125 mM NaCl, 10% glycerol). Protein concentration, determined by Pierce BCA method, was adjusted to 1.5-2 mg/ml. Aliquots were stored at -80° C. Determination of IC50 : […] The reaction was stopped with […] solution. The samples were heated 5 min at 95° C. and submitted to SDS-PAGE (7.5% acrylamide gel). Gels were fixed in 40% methanol:10% acetic acid for 1 h and washed overnight with 20% methanol:7% acetic acid. After 15 min in 50% methanol:2% glycerol gels were dried and exposed overnight. Bands corresponding to EGFR were excised from the gels and counted in a β-counter.

pIC50: −log10 of the molar value. Read-outs that look alike come from different tables or passages of the source.

We go through two compounds from patent US6057326A, “Bicyclic 4-aralkylaminopyrimidine derivatives as tyrosine kinase inhibitors” (Pharmacia & Upjohn S.p.A, priority 1996, dated 2000).

T1 sequence (P00533 25-1210): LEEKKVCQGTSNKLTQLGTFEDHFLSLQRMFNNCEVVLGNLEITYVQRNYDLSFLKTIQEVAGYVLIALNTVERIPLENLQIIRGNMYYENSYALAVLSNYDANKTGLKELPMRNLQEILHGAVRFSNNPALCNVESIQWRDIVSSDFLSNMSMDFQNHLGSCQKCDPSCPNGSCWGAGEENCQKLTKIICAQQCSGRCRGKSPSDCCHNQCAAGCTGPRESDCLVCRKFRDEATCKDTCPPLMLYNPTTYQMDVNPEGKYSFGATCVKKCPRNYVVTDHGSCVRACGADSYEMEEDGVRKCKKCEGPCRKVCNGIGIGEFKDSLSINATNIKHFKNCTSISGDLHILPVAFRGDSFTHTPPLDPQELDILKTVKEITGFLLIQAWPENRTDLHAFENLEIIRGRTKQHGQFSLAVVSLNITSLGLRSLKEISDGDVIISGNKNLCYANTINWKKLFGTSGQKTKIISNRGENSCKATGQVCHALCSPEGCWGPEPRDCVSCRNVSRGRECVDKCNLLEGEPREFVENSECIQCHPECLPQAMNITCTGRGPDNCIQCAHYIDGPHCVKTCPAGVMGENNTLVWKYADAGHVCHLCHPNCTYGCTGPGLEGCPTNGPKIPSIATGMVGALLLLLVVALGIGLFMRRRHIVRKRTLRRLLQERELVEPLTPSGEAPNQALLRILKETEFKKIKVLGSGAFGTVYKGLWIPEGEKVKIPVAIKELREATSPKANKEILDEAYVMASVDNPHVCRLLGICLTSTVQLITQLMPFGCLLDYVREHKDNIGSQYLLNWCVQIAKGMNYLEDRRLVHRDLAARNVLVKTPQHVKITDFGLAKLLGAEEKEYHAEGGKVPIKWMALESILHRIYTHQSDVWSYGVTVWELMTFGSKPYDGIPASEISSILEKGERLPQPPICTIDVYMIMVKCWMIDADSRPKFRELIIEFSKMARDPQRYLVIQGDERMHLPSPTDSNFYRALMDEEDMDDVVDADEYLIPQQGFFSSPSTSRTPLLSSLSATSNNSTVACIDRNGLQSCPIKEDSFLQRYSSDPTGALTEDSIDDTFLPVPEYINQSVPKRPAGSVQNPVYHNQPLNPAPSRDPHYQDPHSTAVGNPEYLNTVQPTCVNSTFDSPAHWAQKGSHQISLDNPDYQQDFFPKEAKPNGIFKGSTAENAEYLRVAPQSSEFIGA

For `COc1cc2ncnc(N[C@H](COC(C)=O)c3ccccc3)c2cc1OC` [FCE 29772, (S)-4-[α-(acetoxymethyl)benzylamino]-6,7dimethoxyquinazoline], the negative-log IC50 (pIC50) in test [1] was 5.88; in test [2] it was 5.28; in test [3], 7.09. The same compound came in with an inhibition at 1 µM in test [3] of 94.9%. The compound also gave an inhibition at 10 µM in test [3] of 98%.
`COc1cc2ncnc(N[C@H](CO)c3ccccc3)c2cc1OC` [FCE 29771, (S)-4-[α-(hydroxymethyl)benzylamino]-6,7dimethoxyquinazoline]: the negative logarithm of the IC50 (pIC50) in test [1] (A431 cells, 100 ng/ml EGF, 10 min stimulation) was 6.10; in test [2] (A431 cells, 3 days, SRB) it was under 5.81; in test [3] it was 7.62. In test [3], the inhibition at 1 µM came to 93.8%. The compound also returned an inhibition at 10 µM in test [3] of 98.3%.

What is called pIC50 is −log10 of the IC50, conventionally taken in molar units. As a reminder, the inhibition is the percentage by which the read-out fell short of the control. The low end stands for a weak effect, the high end for a strong effect.
